Assay results as given in patent publication US9684238B2, “Fluorene-type compound, photopolymerization initiator comprising said fluorene-type compound, and photosensitive composition containing said photopolymerization initiator” (TOKYO OHKA KOGYO CO., LTD., priority 2012, dated 2017).

Tests used:
Type in all cases: physicochemical
[1] = Transmittance of transparent cured film
Procedure, shortened: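 Films cured at 80 mJ/cm^2 exposure, otherwise prepared as in the earlier film evaluation. Spectrophotometer read in quartz cell, 1 cm path, giving transmittance (%) at 400 nm and average transmittance (%) over 400–700 nm.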

[2] = Decomposition point by thermal analysis (TG-DTA); settings: 5.0 mg
Protocol: The compounds 1, 2, 4, 6, 8, 9, 11, 12, 13, 15, 16, D-1, D-3, D-4, D-7, D-8, D-9, D-12, D-14, D-15, D-20, C-1, and C-2 were each subjected to measurement with a thermal analysis apparatus (TG-DTA) (manufactured by Rigaku Corporation, trade name: “Thermo Plus EVO TG 8120”) by using 5.0 mg thereof.

[3] = Absorption coefficient (absorbance of 0.001% solution in tetrahydrofuran)
Procedure, shortened: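 Absorbance of a 0.001% (wt/vol) solution in tetrahydrofuran recorded by spectrophotometer. Absorption maximum wavelength (λmax) taken from the spectrum within 280–400 nm.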

[4] = cured at exposure energy quantity 80 mJ/cm^2
[5] = 0.001% (wt/vol) solution in tetrahydrofuran

CCCC1(CCC)c2cc(C(=O)c3ccccc3C)ccc2-c2ccc(/C(C)=N/OC(C)=O)cc21 [Compound 4]
Average transmittance (700 nm to 400 nm) Transparent cured film [1, 4]: 99.9% | Transmittance (400 nm) Transparent cured film [1, 4]: 99.4% | transparency of photosensitive composition and formed product (in words) ([1]; photopolymerization initiator containing the compound): additionally excellent transparency | Decomposition point [2]: 277.0 °C | Λ max (absorption maximum wavelength) ([3]; 0.001% (wt/vol) in tetrahydrofuran, from 280 nm to 400 nm): 330.5 nm | Absorption coefficient at 365 nm [3, 5]: 2.2 mL/mg/cm | Absorption coefficient at Λ max [3, 5]: 85.7 mL/mg/cm
